Measured values: BindingDB's records for PubMed 39369480 (Xuzhou Medical University)

Assay: Inhibition of P-gp in human K562/A02 cells over expressing P-gp assessed as reversal of multi-drug resistance by measuring ADR IC50 measured after 72 hrs by CCK-8 assay

| SMILES | IC50 [nM] |
| --- | --- |
| COc1ccc(C(=O)Nc2ccccc2/N=N/c2ccc(CCN3CCc4cc(OC)c(OC)cc4C3)cc2)cc1OC | 35 |
| COc1cc2c(cc1OC)CN(CCc1ccc(/N=N/c3ccccc3NC(=O)c3ccc(Cl)c(Cl)c3)cc1)CC2 | 1600 |
| COc1cc2c(cc1OC)CN(CCc1ccc(/N=N/c3ccccc3NC(=O)c3ccc(C)c(C)c3)cc1)CC2 | 168 |
| COc1cc2c(cc1OC)CN(CCc1ccc(/N=N/c3ccccc3NC(=O)c3ccc(F)c(F)c3)cc1)CC2 | 108 |
| COc1cc2c(cc1OC)CN(CCc1ccc(/N=N/c3ccccc3NC(=O)c3cc(OC)c(OC)c(OC)c3)cc1)CC2 | 1290 |
| COc1cc2c(cc1OC)CN(CCc1ccc(/N=N/c3ccccc3NC(=O)c3ccccc3)cc1)CC2 | 70 |
| COc1cccc(C(=O)Nc2ccccc2/N=N/c2ccc(CCN3CCc4cc(OC)c(OC)cc4C3)cc2)c1 | 68 |
| COc1ccc(C(=O)Nc2ccccc2/N=N/c2ccc(CCN3CCc4cc(OC)c(OC)cc4C3)cc2)cc1 | 88 |
| COc1cc2c(cc1OC)CN(CCc1ccc(/N=N/c3ccccc3NC(=O)c3ccccc3OC)cc1)CC2 | 15 |
| COc1cc2c(cc1OC)CN(CCc1ccc(/N=N/c3ccccc3NC(=O)c3ccc(C)cc3)cc1)CC2 | 44 |
| COc1cc2c(cc1OC)CN(CCc1ccc(/N=N/c3ccccc3NC(=O)c3ccccc3[N+](=O)[O-])cc1)CC2 | 20 |
| COc1cc2c(cc1OC)CN(CCc1ccc(/N=N/c3ccccc3NC(=O)c3ccc([N+](=O)[O-])cc3)cc1)CC2 | 120 |
| COc1cc2c(cc1OC)CN(CCc1ccc(/N=N/c3ccccc3NC(=O)c3cccc([N+](=O)[O-])c3)cc1)CC2 | 50 |
| COc1cc2c(cc1OC)CN(CCc1ccc(/N=N/c3ccccc3NC(=O)c3ccccc3Cl)cc1)CC2 | 32 |
| COc1cc2c(cc1OC)CN(CCc1ccc(/N=N/c3ccccc3NC(=O)c3ccc(Cl)cc3)cc1)CC2 | 83 |
| COc1cc2c(cc1OC)CN(CCc1ccc(/N=N/c3ccccc3NC(=O)c3cccc(Cl)c3)cc1)CC2 | 43 |
| COc1cc2c(cc1OC)CN(CCc1ccc(/N=N/c3ccccc3NC(=O)c3ccc(C(C)(C)C)cc3)cc1)CC2 | 105 |
| COc1cc2c(cc1OC)CN(CCc1ccc(NC(=O)c3ccccc3/N=N/c3ccccc3)cc1)CC2 | 92 |
| COc1ccccc1/N=N/c1ccccc1C(=O)Nc1ccc(CCN2CCc3cc(OC)c(OC)cc3C2)cc1 | 275 |
| COc1cc2c(cc1OC)CN(CCc1ccc(NC(=O)c3ccccc3/N=N/c3cccc(Cl)c3)cc1)CC2 | 84 |
| COc1cc2c(cc1OC)CN(CCc1ccc(NC(=O)c3ccccc3/N=N/c3ccc(Cl)cc3)cc1)CC2 | 82 |
| COc1cc2c(cc1OC)CN(CCc1ccc(NC(=O)c3ccccc3/N=N/c3ccc(C)cc3)cc1)CC2 | 68 |
| COc1ccc(C(=O)Nc2ccccc2C(=O)Nc2ccc(CCN3CCc4cc(OC)c(OC)cc4C3)cc2)cc1OC [N-(2-(4-(2-(6,7-dimethoxy-3,4-dihydroisoquinolin-2(1H)-yl)ethyl)phenylcarbamoyl)phenyl)-3,4-dimethoxybenzamide] | 34 |
